SMILES strings stand for the structures.

The species named for assay [1] is Papio hamadryas. Briefly: Percent radioactivity remained at 120 min post injection was reported in female baboons. The assay is classed as functional, organism-based. As to conditions: tested as the 18F-labelled form.
For assay [2], the species on record is Papio hamadryas. Briefly: Peak concentration injected dose/cc was observed at 10 min post injection in female baboons. The assay is classed as functional.

As to `NCC(O)c1cc(O)c(O)cc1F` (racemic), the Radioactivity remained in assay [1] was 0.032%.

With `NCC(O)c1cc(O)c(O)cc1[18F]` (racemic), the Peak concentration in assay [2] is listed as 0.042%.
